# Assay results as given in patent US11957680B2, “Pyruvate kinase activators for use in treating blood disorders” (Agios Pharmaceuticals, Inc., priority 2017, dated 2024).
# Legend:
# [1] = biological target: PKR R510Q (Homo sapiens, UniProt P30613, R510Q); experiment: PKR mutant assay (R510Q), AC50, LDH/NADH-coupled, absorbance at 340 nm; format: biochemical; settings: for EC50: read-out: PK R510Q; for AC50: read-out: PK R510Q AC50
# Protocol: (§1) Example 11. PKR Mutant Assay
# (§2) PKR or PKR mutant enzyme solution was diluted into a reaction mix, which contains 1× buffer (100 mM KCl, 50 mM Tris pH 7.5, 5 mM MgCl2) as well as PEP (conc depends on enzyme), 180 μM NADH, 0.5 units LDH, 1 mM DTT, 0.03% BSA; final assay concentrations after 1.11 fold dilution are indicated.
# (§3) 2 μL of test compound was added into wells first, and then 180 μL reaction mix was added.
# (§4) Reactions mixture with test compound was assembled except for ADP, and plates were stored for 60 minutes at room temperature.
# (§5) 20 uL ADP was added to start reaction at room temperature and reaction progress was measured as changes in absorbance at 340 nm wavelength at room temperature.
# (§6) Test Compound Preparation:
# (§7) Test compound stock was made at 100× concentration in 100% DMSO (10 mM)
# (§8) 1 to 3 dilutions were made for 11 points (i.e. 50 μl of first concentration added to 100 μl 100% DMSO to yield 3.33 mM, 50 μl of this added to 100 μl DMSO to yield 1.11 mM, and so forth) • 1 to 100 dilution into assay (2 μl in 200 μl) yielded starting concentration of 100 μM, decreasing 3 fold for 11 points.
# (§9) Assay Buffer: 100 mM KCl, 50 mM Tris 7.5, 5 mM MgCl2, 1 mM DTT, 0.03% BSA
# (§10) Reaction Mixture: PKR mutant enzyme: 40-400 ng/well; ADP: 0.2-1.65 mM; PEP: 0.1-0.5 mM; NADH: 180 μM; LDH: 0.5 units (Sigma #59023); DTT: 1 mM; BSA: 0.03%.
# [2] = biological target: T1, wild type PKR (Homo sapiens, UniProt P30613); experiment: Cell based ATP assay in purified red blood cells (Cell-Titer-Glo); design: endogenous in cells; host or cells: purified red blood cells from healthy volunteers; settings: overnight at 37° C., ATP levels; for EC50: Table 4, AC50, RBCs; for AC50 / Cell based ATP assay AC50: Table 2, RBCs
# T1 sequence (P30613 whole entry): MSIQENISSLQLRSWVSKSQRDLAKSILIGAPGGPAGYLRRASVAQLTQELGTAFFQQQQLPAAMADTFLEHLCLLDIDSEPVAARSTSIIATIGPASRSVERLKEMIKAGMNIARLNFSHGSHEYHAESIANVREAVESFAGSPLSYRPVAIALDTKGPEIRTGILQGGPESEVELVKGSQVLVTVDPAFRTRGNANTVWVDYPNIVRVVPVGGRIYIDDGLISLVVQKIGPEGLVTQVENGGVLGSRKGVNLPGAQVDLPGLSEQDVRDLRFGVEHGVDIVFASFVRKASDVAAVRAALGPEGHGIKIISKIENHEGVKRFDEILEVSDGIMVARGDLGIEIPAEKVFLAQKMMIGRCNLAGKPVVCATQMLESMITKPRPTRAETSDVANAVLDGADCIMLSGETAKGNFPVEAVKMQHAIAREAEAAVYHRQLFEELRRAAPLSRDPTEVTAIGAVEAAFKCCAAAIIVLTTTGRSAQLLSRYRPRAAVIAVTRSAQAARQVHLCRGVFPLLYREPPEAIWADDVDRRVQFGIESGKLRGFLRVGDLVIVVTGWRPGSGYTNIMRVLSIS
# Protocol: Example 16. Red Blood Cell (RBC) Purification
# Fresh blood drawn from healthy volunteers into K2EDTA tubes was collected. Whole blood was pelleted by spinning at 500 g for 10 minutes. Cut transfusion bag port off of Purecell leukocyte reduction neofilter (Fisher NC0267633) one (1) inch above filter. Attach a 10 ml syringe barrel to the remaining cut tubing attached to neofilter. The plasma layer was removed from the pellet of the whole blood and the pellet was resuspended in 2× volume of phosphate buffered saline (PBS). Transfer 9 ml re-suspended blood cell pellet to prepared 10 ml syringe that is attached to the neofilter. Allow whole blood to gravity flow through filter until all fluid runs through upper tubing into filter disc. Add plunger to the syringe, remove syringe from clamp and invert the filter, then plunge air through the syringe filter system. Using a new 5 ml syringe, remove filtered RBCs from the bag by the syringe port and transfer purified RBCs to a 5 ml snap cap tube that has been incubated on ice. Spin 5 ml snap cap tube at 500 g for 10 minutes at 15 C, aspirate supernatant and resuspend in AGAM (1×PBS, 1% glucose, 170 mg/L adenine, 5.25 g/L mannitol) at a density of 4×10^9 cells/mL.
# Example 17. Cell Based ATP Assay
# For cell based ATP assays, the compound as described herein was prepared in 100% DMSO as a 10 mM stock. Serial dilutions (1:4) were performed in 96-well V-bottom storage plate and then added 1:100 to 96-well V-bottom plates containing AGAM. RBCs were diluted in AGAM media to a density of 1×10^7 cells/mL before added 90 μL/well to black clear bottom assay plates (final compound concentration at 0.1% DMSO concentration). Assay plates were sealed using aluminum foil seals and incubated overnight at 37° C. in a humidified chamber. ATP levels were read out using Cell-Titer-Glo (Promega).
# [3] = biological target: T1, wild type PKR; experiment: PKR (wild type) enzyme AC50 assay, LDH/NADH-coupled, absorbance at 340 nm; format: biochemical; settings: for EC50: read-out: PKR WT; for AC50: Table 2, enzyme assay, read-out: PKR WT AC50
# Protocol: as §1, §2, §3, §4, §5, §6, §7, §8, §9, §10
# [4] = biological target: PKR K410E (Homo sapiens, UniProt P30613, K410E); experiment: PKR mutant assay (K410E), AC50, LDH/NADH-coupled, absorbance at 340 nm; format: biochemical; settings: for EC50: Table 4, AC50, enzyme assay; for AC50: Table 2, enzyme assay
# Chain of PKR K410E (P30613 whole entry K410E): as the sequence (P30613 whole entry) above, with K410E counted along it
# Protocol: as §1, §2, §3, §4, §5, §6, §7, §8, §9, §10
# Chain of PKR R510Q (P30613 whole entry R510Q): as the sequence (P30613 whole entry) above, with R510Q counted along it
smiles,measurement,setting,value
Cn1c2nc(Cc3cc[nH]n3)sc2c2cnn(Cc3n[nH]c4cccnc34)c(=O)c21 [Compound 379],EC50,"[1]; Table 4, AC50, enzyme assay",< 300 nM
same,EC50,[2],≤ 1000 nM
same,EC50,"[3]; Table 4, AC50, enzyme assay",< 300 nM
same,EC50,[4],< 300 nM
CS(=O)(=O)c1nc2c(s1)c1cnn(Cc3ccccc3)c(=O)c1n2-c1nccs1 [Compound 410],PK R510Q,"[1]; Table 4, AC50, enzyme assay",No Fit
same,EC50,[2],> 1000 nM
same,PKR WT,"[3]; Table 4, AC50, enzyme assay",No Fit
same,EC50,[4],> 800 nM
Cn1c2nc(Cc3cncs3)sc2c2cnn(Cc3cccc4[nH]ncc34)c(=O)c21 [Compound 211],EC50,"[1]; Table 4, AC50, enzyme assay",< 300 nM
same,EC50,[2],≤ 1000 nM
same,EC50,"[3]; Table 4, AC50, enzyme assay",< 300 nM
same,EC50,[4],< 300 nM
CC(O)c1nc2c(s1)c1cnn(Cc3cccc4[nH]ncc34)c(=O)c1n2C (stereo not drawn) [Compound 106],AC50,"[1]; Table 2, enzyme assay",< 300 nM
same,AC50,[2],≤ 1000 nM
same,AC50,[3],< 300 nM
same,AC50,[4],< 300 nM
Cn1c2nc(Cc3cc[nH]n3)sc2c2cnn(Cc3cccc4sc(N)nc34)c(=O)c21 [Compound 235],EC50,"[1]; Table 4, AC50, enzyme assay",< 300 nM
same,EC50,[2],≤ 1000 nM
same,EC50,"[3]; Table 4, AC50, enzyme assay",< 300 nM
same,EC50,[4],< 300 nM
COc1cccc(Cn2ncc3c4sc([S+](C)[O-])nc4n(C)c3c2=O)c1 (stereo not drawn) [Compound 24],AC50,"[1]; Table 2, enzyme assay",< 300 nM
same,AC50,[2],> 1000 nM
same,AC50,[3],< 300 nM
same,AC50,[4],< 300 nM
COC(=O)c1nc2c(s1)c1cnn(Cc3cccc(OC)c3)c(=O)c1n2C [Compound 43],AC50,"[1]; Table 2, enzyme assay",301 to 800 nM
same,Cell based ATP assay AC50,[2],No Fit
same,AC50,[3],> 800 nM
same,AC50,[4],> 800 nM
Cn1c2nc(Cc3cn[nH]c3)sc2c2cnn(Cc3cccc4[nH]ncc34)c(=O)c21 [Compound 184],AC50,"[1]; Table 2, enzyme assay",< 300 nM
same,AC50,[2],≤ 1000 nM
same,AC50,[3],< 300 nM
same,AC50,[4],< 300 nM
Cn1c2nc(C(N)=O)sc2c2cnn(Cc3cccc4[nH]ncc34)c(=O)c21 [Compound 82],AC50,"[1]; Table 2, enzyme assay",301 to 800 nM
same,AC50,[2],> 1000 nM
same,AC50,[3],< 300 nM
same,AC50,[4],301 to 800 nM
Cn1c2nc(Cc3cc[nH]n3)sc2c2cnn(Cc3cccc(C#N)c3)c(=O)c21 [Compound 182],AC50,"[1]; Table 2, enzyme assay",< 300 nM
same,AC50,[2],≤ 1000 nM
same,AC50,[3],< 300 nM
same,AC50,[4],< 300 nM
Cc1nc2c(s1)c1cnn(Cc3cccc([N+](=O)[O-])c3)c(=O)c1n2C [Compound 47],AC50,"[1]; Table 2, enzyme assay",> 800 nM
same,Cell based ATP assay AC50,[2],No Fit
same,AC50,[3],> 800 nM
same,AC50,[4],> 800 nM
CSc1nc2c(s1)c1cnn(Cc3cccc(C(C)(C)O)c3)c(=O)c1n2C [Compound 85],AC50,"[1]; Table 2, enzyme assay",< 300 nM
same,AC50,[2],≤ 1000 nM
same,AC50,[3],< 300 nM
same,AC50,[4],301 to 800 nM
COc1ccc(Cc2nc3c(s2)c2cnn(Cc4cccc5[nH]ncc45)c(=O)c2n3C)cn1 [Compound 173],AC50,"[1]; Table 2, enzyme assay",< 300 nM
same,AC50,[2],≤ 1000 nM
same,AC50,[3],< 300 nM
same,AC50,[4],< 300 nM
Cc1nc2c(s1)c1cnn(Cc3cccc4cn[nH]c34)c(=O)c1n2C [Compound 65],AC50,"[1]; Table 2, enzyme assay",301 to 800 nM
same,AC50,[2],> 1000 nM
same,AC50,[3],> 800 nM
same,AC50,[4],301 to 800 nM
Cn1c2nc([S+](C)[O-])sc2c2cnn(Cc3cnc(N)nc3)c(=O)c21 (stereo not drawn) [Compound 94],PK R510Q AC50,"[1]; Table 2, enzyme assay",No Fit
same,AC50,[2],> 1000 nM
same,AC50,[3],> 800 nM
same,AC50,[4],> 800 nM
Cn1c2nc(S(=O)(=O)Cc3ccccc3)sc2c2cnn(Cc3cccc4[nH]ncc34)c(=O)c21 [Compound 128],AC50,"[1]; Table 2, enzyme assay",301 to 800 nM
same,AC50,[2],> 1000 nM
same,AC50,[3],< 300 nM
same,AC50,[4],301 to 800 nM
Cc1nc2c(s1)c1cnn(Cc3cccc(NC(N)=O)c3)c(=O)c1n2C [Compound 15],AC50,"[1]; Table 2, enzyme assay",< 300 nM
same,AC50,[2],> 1000 nM
same,AC50,[3],> 800 nM
same,AC50,[4],> 800 nM
Cn1c2nc(Cc3ncsc3CO)sc2c2cnn(Cc3cccc4[nH]ncc34)c(=O)c21 [Compound 167],AC50,"[1]; Table 2, enzyme assay",< 300 nM
same,AC50,[2],≤ 1000 nM
same,AC50,[3],< 300 nM
same,AC50,[4],< 300 nM
